Experimental data reported in patent US5672715A, “Herbicidal substituted 3-aryl-pyrazoles” (Monsanto Company, priority 1995, dated 1997).
Where two headings read alike, the source gives them in different places.

Columns and labels:
Assay type in all cases: in vivo
Morning Glory [1] = assay: post-emergence herbicide test; settings: Ipomoea, post-emergence, read-out: % plant inhibition
Summary of the method: (§1)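 Post-emergence activity is given as percent inhibition per species. Test compounds were atomizer-sprayed at 170.3 kPa, 1870 L/Ha carrier volume and roughly 0.4% v/v emulsifier onto greenhouse-raised plants aged two to three weeks, at the stated rates.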

Blackgrass = assay: post-emergence herbicide test; settings: Alopecurus myosuroides, post-emergence, read-out: % plant inhibition; for inhibition at 200.072 g/ha: 0.1785 lb/A; for inhibition at 1000.92 g/ha: 0.893 lb/A; for inhibition at 5043.82 g/ha: 4.5 lb/A
Summary of the method: as §1

Soybean [2] = assay: post-emergence herbicide test; settings: Glycine max, post-emergence, read-out: % plant inhibition
Summary of the method: as §1

Common Chickweed = assay: post-emergence herbicide test; settings: post-emergence, read-out: % plant inhibition
Summary of the method: as §1

Yellow Foxtail [3] = assay: post-emergence herbicide test; settings: Setaria, read-out: % plant inhibition
Summary of the method: as §1

Barnyardgrass [4] = assay: post-emergence herbicide test; settings: Echinochloa crus-galli, post-emergence, read-out: % plant inhibition
Summary of the method: as §1

Velvetleaf [5] = assay: post-emergence herbicide test; settings: Abutilon theophrasti, post-emergence, read-out: % plant inhibition
Summary of the method: as §1

Morning Glory [6] = assay: pre-emergence herbicide test; settings: Ipomoea, pre-emergence, read-out: % plant inhibition
Summary of the method: (§2)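 Pre-emergence soil treatment: seeds on compacted topsoil, cover layer dosed with test compound in organic solvent (e.g. acetone) or water. Greenhouse, subirrigated as needed, sometimes 1/4 inch overhead water right after treatment. Read-out ~14 d: % inhibition.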

Soybean [7] = assay: pre-emergence herbicide test; settings: Glycine max, pre-emergence, read-out: % plant inhibition
Summary of the method: as §2

Yellow Foxtail [8] = assay: pre-emergence herbicide test; settings: Setaria, read-out: % plant inhibition
Summary of the method: as §2

Rice = assay: pre-emergence herbicide test; settings: Oryza sativa, read-out: % plant inhibition
Summary of the method: as §2

Barnyardgrass [9] = assay: pre-emergence herbicide test; settings: Echinochloa crus-galli, pre-emergence, read-out: % plant inhibition
Summary of the method: as §2

Cocklebur = assay: pre-emergence herbicide test; settings: Xanthium strumarium, pre-emergence, read-out: % plant inhibition
Summary of the method: as §2

Yellow Nutsedge = assay: pre-emergence herbicide test; settings: Cyperus, read-out: % plant inhibition
Summary of the method: as §2

Corn = assay: pre-emergence herbicide test; settings: Zea mays, pre-emergence, read-out: % plant inhibition
Summary of the method: as §2

Velvetleaf [10] = assay: pre-emergence herbicide test; settings: Abutilon theophrasti, pre-emergence, read-out: % plant inhibition
Summary of the method: as §2

SMILES: Cc1c(-c2cc(F)ccc2F)nn(C)c1C(F)(F)F [Compound 1, 3-(2,5-Difluorophenyl)-1,4-dimethyl-5-(trifluoromethyl)-1H-pyrazole]
- inhibition at 200.072 g/ha (Morning Glory [1]; 0.1785 lb/A): 0%
- inhibition at 1000.92 g/ha (Morning Glory [1]; 0.893 lb/A): 0%
- inhibition at 5043.82 g/ha (Morning Glory [1]; 4.5 lb/A): 15%
- inhibition at 200.072 g/ha (Blackgrass; Table 4a): 0%
- inhibition at 200.072 g/ha (Blackgrass; Table 5a): 0%
- inhibition at 1000.92 g/ha (Blackgrass; Table 4a): 0%
- inhibition at 1000.92 g/ha (Blackgrass; Table 5a): 0%
- inhibition at 5043.82 g/ha (Blackgrass; Table 4a): 0%
- inhibition at 5043.82 g/ha (Blackgrass; Table 5a): 35%
- inhibition at 200.072 g/ha (Soybean [2]; 0.1785 lb/A): 0%
- inhibition at 1000.92 g/ha (Soybean [2]; 0.893 lb/A): 0%
- inhibition at 5043.82 g/ha (Soybean [2]; 4.5 lb/A): 0%
- inhibition at 200.072 g/ha (Common Chickweed; 0.1785 lb/A): 0%
- inhibition at 1000.92 g/ha (Common Chickweed; 0.893 lb/A): 0%
- inhibition at 5043.82 g/ha (Common Chickweed; 4.5 lb/A): 40%
- inhibition at 200.072 g/ha (Yellow Foxtail [3]; 0.1785 lb/A): 0%
- inhibition at 1000.92 g/ha (Yellow Foxtail [3]; 0.893 lb/A): 0%
- inhibition at 5043.82 g/ha (Yellow Foxtail [3]; 4.5 lb/A): 50%
- inhibition at 200.072 g/ha (Barnyardgrass [4]; 0.1785 lb/A): 0%
- inhibition at 1000.92 g/ha (Barnyardgrass [4]; 0.893 lb/A): 0%
- inhibition at 5043.82 g/ha (Barnyardgrass [4]; 4.5 lb/A): 0%
- inhibition at 200.072 g/ha (Velvetleaf [5]; 0.1785 lb/A): 0%
- inhibition at 1000.92 g/ha (Velvetleaf [5]; 0.893 lb/A): 0%
- inhibition at 5043.82 g/ha (Velvetleaf [5]; 4.5 lb/A): 20%
- inhibition at 1000.92 g/ha (Morning Glory [6]; 0.893 lb/A): 0%
- inhibition at 5043.82 g/ha (Morning Glory [6]; 4.5 lb/A): 35%
- inhibition at 1000.92 g/ha (Soybean [7]; 0.893 lb/A): 0%
- inhibition at 5043.82 g/ha (Soybean [7]; 4.5 lb/A): 0%
- inhibition at 1000.92 g/ha (Yellow Foxtail [8]; 0.893 lb/A): 0%
- inhibition at 5043.82 g/ha (Yellow Foxtail [8]; 4.5 lb/A): 35%
- inhibition at 1000.92 g/ha (Rice; 0.893 lb/A): 25%
- inhibition at 5043.82 g/ha (Rice; 4.5 lb/A): 0%
- inhibition at 1000.92 g/ha (Barnyardgrass [9]; 0.893 lb/A): 0%
- inhibition at 5043.82 g/ha (Barnyardgrass [9]; 4.5 lb/A): 50%
- inhibition at 1000.92 g/ha (Cocklebur; 0.893 lb/A): 0%
- inhibition at 5043.82 g/ha (Cocklebur; 4.5 lb/A): 0%
- inhibition at 1000.92 g/ha (Yellow Nutsedge; 0.893 lb/A): 0%
- inhibition at 5043.82 g/ha (Yellow Nutsedge; 4.5 lb/A): 45%
- inhibition at 1000.92 g/ha (Corn; 0.893 lb/A): 0%
- inhibition at 5043.82 g/ha (Corn; 4.5 lb/A): 10%
- inhibition at 1000.92 g/ha (Velvetleaf [10]; 0.893 lb/A): 0%
- inhibition at 5043.82 g/ha (Velvetleaf [10]; 4.5 lb/A): 65%
